Measurements: patent US20050027106A1, “Cancerous disease modifying antibodies” (priority 2003, published 2005)

Experiments:
[1] = test system: HT-29 colon cancer cell line; assay: Live/Dead cytotoxicity assay, hybridoma supernatant; settings: 5 days
Procedure: (§1) In conjunction with testing for antibody binding, the cytotoxic effects of the hybridoma supernatants were tested in the same colon cancer and normal cell lines: HT-29, SW1116 (and Lovo for AR26A439.3) and CCD-27sk. The Live/Dead cytotoxicity assay was obtained from Molecular Probes ([…].). The assays were performed according to the manufacturer's instructions with the changes outlined below. Cells were plated before the assay at the predetermined appropriate density. After 2 days, 100 μl of supernatant from the hybridoma microtitre plates were transferred to the cell plates and incubated in a 5 percent CO2 incubator for 5 days. […] An anti-EGFR antibody (C225) was also used in the assay for comparison. After 5 days of treatment, the plate was then emptied by inverting and blotting dry. Room temperature DPBS (Dulbecco's phosphate buffered saline) containing MgCl2 and CaCl2 was dispensed into each well from a multichannel squeeze bottle, tapped 3 times, emptied by inversion and then blotted dry. 50 μl of the fluorescent Live/Dead dye diluted in DPBS containing MgCl2 and CaCl2 was added to each well and incubated at 37° C. in a 5% CO2 incubator for 30 minutes. The plates were read in a Perkin-Elmer HTS7000 fluorescence plate reader and the data was analyzed in Microsoft Excel.

[2] = as above; settings: human
Procedure: as §1

[3] = test system: CCD-27sk normal cell line; assay: as above; settings: 5 days
Procedure: as §1

## [N-]=[N+]=[N-] [NaN3, sodium azide]
[1]
  Cytotoxicity (%) HT-29 Average: 57%
[2]
  cytotoxicity at 5 days: 4%
[2]; Cytotoxicity (%) HT-29 Average
  cytotoxicity at 5 days: 59%

## C[C@@H]1C[C@@H]([C@H](O)CC2CC(=O)NC(=O)C2)C(=O)[C@@H](C)C1 [Cycloheximide]
[1]
  Cytotoxicity (%) HT-29 Average: 48%
[3]
  Cytotoxicity (%) CCD-27sk Average: 40%
[2]
  cytotoxicity at 5 days: 56%
[2]; Cytotoxicity (%) CCD-27sk Average
  cytotoxicity at 5 days: 21%
[2]; Cytotoxicity (%) HT-29 Average
  cytotoxicity at 5 days: 46%
